# Laboratory results reported in PubChem BioAssay AID2060908 (Molecular Pharmacology Branch, DTP, NCI, 2025).
# Tested on: 186277-243-T-J2-PDC complex spheroids, viability
# Assay: Anticancer human tumor 186277-243-T-J2-PDC patient-derived colon adenocarcinoma cell line growth inhibition [RAS]
# Details: for viability, T/C: stronger effect = lower value
# Text: RAS pathway inhibitors in Combinations in Complex Spheroids
# A high-throughput screen of multi-cell type tumor spheroids was designed to identify active combinations of RAS pathway inhibitors and targeted small molecules. Complex spheroids include a stromal component modeled by human endothelial cells (HUVEC) and fibroblasts modeled by human mesenchymal stem cells (MSCs). The concentration ranges selected for each drug and investigational agent were based upon clinically achievable concentrations if the clinical Cmax of the agent was known.
# Compounds. The drugs and investigational agents: abemaciclib (NSC768073), cobimetinib (NSC768068), divarasib (GDC6063, NSC841802), docetaxel (NSC628503), GDC-1971 (RLY-1971, NSC841576), gemcitabine (NSC613327), inavolisib (NSC800729), ipatasertib (NSC767898), KB-0742 (NSC834161), MRTX-1133 (NSC836407), osimertinib (NSC779217), RMC-4630 (NSC839698), RMC-6236 (NSC851965), RMC-6291 (NSC852671), Ro-3306 (NSC812927), sapanisertib (NSC764658), SN-38 (NSC673596), staurosporine (NSC755774), SY5609 (NSC837396), and tovorafenib (DAY101, NSC766906), were obtained from the National Cancer Institute (NCI) Developmental Therapeutics Program Chemical Repository. The FDA-approved anticancer drug set is available from the NCI Developmental Therapeutics Program. […] The stock solutions were prepared in dimethyl sulfoxide (DMSO, Sigma-Aldrich, St. Louis, MO, cat. D2650) at 800-fold the tested concentration and stored at -70 degrees C prior to their use. All drugs and investigational agents were tested over a range starting from a high concentration at or near the clinical Cmax and decreasing in half-log increments. If the clinical Cmax for an agent had not been determined, the highest concentration tested was 10 microM.
# Cell Culture. All cells were maintained in an incubator at 37 degrees C and 5% CO2 with 95% humidity. The PDC lines were cultured according to standard operating procedures established by the NCI PDMR. All PDCs were thawed and cultured in Matrigel-coated flasks prepared with a working solution of 1X Ham's F-12 nutrient mix, without supplementation (Invitrogen, Waltham, MA, cat. 11765054), 100 U/mL penicillin-streptomycin (Invitrogen, cat. 15140122), and 2.5% Matrigel (Corning Inc., Corning, NY, cat. 354248) for the first three passages. The 362531-283-R-J2-PDC and 782815-120-R-J1-PDC lines were cultured in 6C/Colon 1B media, which includes advanced DMEM/F-12 (Thermo Fisher Scientific, cat. 12634028), 10 mM HEPES (Thermo Fisher Scientific, cat. 15630080), 1X GlutaMAX supplement (Thermo Fisher Scientific, cat. 35050061), 0.1 mg/mL primocin (InvivoGen, San Diego, CA, cat. ant-pm-2), 10% defined fetal bovine serum, heat inactivated (HyClone Laboratories Inc., Logan, UT, cat. SH30070.03HI), 50% L-WRN conditioned media (ATCC, cat. CRL-3276), 1.25 mM N-Acetyl-L-cysteine (Sigma-Aldrich, cat. A9165), 10 mM nicotinamide (Sigma-Aldrich, cat. N0636), 1X B-27 supplement (Thermo Fisher Scientific, cat. 17504044), 1X N-2 supplement (Thermo Fisher Scientific, cat. 17502048), 50 ng/mL human EGF (Thermo Fisher Scientific, cat. PHG0311), and 10 microM Y-27632 dihydrochloride (Tocris Bioscience, cat. 1254). The K12877-001-R-J1-PDC line was cultured in 6I media, which includes all 6C/Colon 1B media plus 10 ng/mL human FGF-10 (PeproTech, cat. 100-26), 1 ng/mL human FGF-2 (PeproTech, cat. 100-18B), 1 µM prostaglandin E2 (Tocris Bioscience, cat. 2296), […] hydrocortisone (Sigma-Aldrich, cat. H4001), and […] bovine insulin (Sigma-Aldrich, cat. I6634). The K86415-001-R-J1-PDC line was cultured in 6D media, which includes all 6C/Colon 1B media components minus the L-WRN conditioned media. The 485176-168-R4-J1-PDC was cultured in PANC media, which includes all 6C/Colon 1B media plus 100 ng/mL human FGF-10 (PeproTech, cat. 100-26), 500 nM SB-431542 (Selleckchem, cat. S1067), and 10 nM gastrin (Tocris Bioscience, cat. 3006). […]
# [1] = curve of first compound, second compound 0.000949 µM
# [2] = curve of first compound, second compound 0.003 µM
# [3] = curve of first compound, second compound 0.00949 µM
# [4] = curve of first compound, second compound 0.03 µM
# [5] = curve of first compound, second compound 0.0949 µM
# [6] = curve of first compound, second compound 0.3 µM
# [7] = second compound 0.000949 µM, first compound 0.00316 µM
# [8] = second compound 0.000949 µM, first compound 0.01 µM
# [9] = second compound 0.000949 µM, first compound 0.0316 µM
# [10] = second compound 0.000949 µM, first compound 0.1 µM
# [11] = second compound 0.000949 µM, first compound 0.316 µM
# [12] = second compound 0.000949 µM, first compound 1 µM
# [13] = second compound 0.003 µM, first compound 0.00316 µM
# [14] = second compound 0.003 µM, first compound 0.01 µM
# [15] = second compound 0.003 µM, first compound 0.0316 µM
# [16] = second compound 0.003 µM, first compound 0.1 µM
# [17] = second compound 0.003 µM, first compound 0.316 µM
# [18] = second compound 0.003 µM, first compound 1 µM
# [19] = second compound 0.00949 µM, first compound 0.00316 µM
# [20] = second compound 0.00949 µM, first compound 0.01 µM
# [21] = second compound 0.00949 µM, first compound 0.0316 µM
# [22] = second compound 0.00949 µM, first compound 0.1 µM
# [23] = second compound 0.00949 µM, first compound 0.316 µM
# [24] = second compound 0.00949 µM, first compound 1 µM
# [25] = second compound 0.03 µM, first compound 0.00316 µM
# [26] = second compound 0.03 µM, first compound 0.01 µM
# [27] = second compound 0.03 µM, first compound 0.0316 µM
# [28] = second compound 0.03 µM, first compound 0.1 µM
# [29] = second compound 0.03 µM, first compound 0.316 µM
# [30] = second compound 0.03 µM, first compound 1 µM
# [31] = second compound 0.0949 µM, first compound 0.00316 µM
# [32] = second compound 0.0949 µM, first compound 0.01 µM
# [33] = second compound 0.0949 µM, first compound 0.0316 µM
# [34] = second compound 0.0949 µM, first compound 0.1 µM
# [35] = second compound 0.0949 µM, first compound 0.316 µM
# [36] = second compound 0.0949 µM, first compound 1 µM
# [37] = second compound 0.3 µM, first compound 0.00316 µM
# [38] = second compound 0.3 µM, first compound 0.01 µM
# [39] = second compound 0.3 µM, first compound 0.0316 µM
# [40] = second compound 0.3 µM, first compound 0.1 µM
# [41] = second compound 0.3 µM, first compound 0.316 µM
# [42] = second compound 0.3 µM, first compound 1 µM
# 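Further: spheroids exposed to compounds for 7 days before viability read.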
compound,measurement,setting,value
Nc1ccn(C2OC(CO)C(O)C2(F)F)c(=O)n1 (configuration not stated) + CCn1c(-c2cccnc2C(C)OC)c2c3cc(ccc31)N1CCOC(CC(NC(=O)C(C(C)C)N(C)C(=O)C3(F)CCN(C(=O)C#CC(C)(C)N(C)C)CC3)C(=O)N3CCCC(N3)C(=O)OCC(C)(C)C2)C1,IC50,[1],4.49 nM
same,IC50,[2],4.28 nM
same,IC50,[3],3.48 nM
same,IC50,[4],4.6 nM
same,IC50,[5],< 3.16 nM
same,IC50,[6],< 3.16 nM
same,"viability, T/C",[7],67.5%
same,"viability, T/C",[8],10.1%
same,"viability, T/C",[9],8.11%
same,"viability, T/C",[10],7.98%
same,"viability, T/C",[11],8.36%
same,"viability, T/C",[12],8.73%
same,"viability, T/C",[13],63.9%
same,"viability, T/C",[14],11.2%
same,"viability, T/C",[15],8.78%
same,"viability, T/C",[16],8.02%
same,"viability, T/C",[17],8.07%
same,"viability, T/C",[18],8.41%
same,"viability, T/C",[19],53.5%
same,"viability, T/C",[20],10.5%
same,"viability, T/C",[21],9.25%
same,"viability, T/C",[22],7.85%
same,"viability, T/C",[23],8.92%
same,"viability, T/C",[24],8.55%
same,"viability, T/C",[25],68.8%
same,"viability, T/C",[26],10.9%
same,"viability, T/C",[27],8.53%
same,"viability, T/C",[28],8.14%
same,"viability, T/C",[29],8.68%
same,"viability, T/C",[30],8.3%
same,"viability, T/C",[31],44.6%
same,"viability, T/C",[32],10.5%
same,"viability, T/C",[33],8.39%
same,"viability, T/C",[34],7.33%
same,"viability, T/C",[35],8.62%
same,"viability, T/C",[36],7.75%
same,"viability, T/C",[37],30.3%
same,"viability, T/C",[38],7.82%
same,"viability, T/C",[39],6.28%
same,"viability, T/C",[40],6.15%
same,"viability, T/C",[41],6.47%
same,"viability, T/C",[42],5.78%
C=CC(=O)N1CCN(c2nc(OCC3CCCN3C)nc3c(F)c(-c4nc(N)cc(C)c4C(F)(F)F)c(Cl)cc23)C(C)C1 (configuration not stated),"viability, T/C",compound 0.0316 µM,100% [middle of 12 runs]
same,IC50,"compound alone, run of 06/10/2024",> 1000 nM
same,IC50,curve of compound,> 1000 nM
CCN1CCN(Cc2ccc(Nc3ncc(F)c(-c4cc(F)c5nc(C)n(C(C)C)c5c4)n3)nc2)CC1 + CCn1c(-c2cc(N3CCN(C)CC3)cnc2C(C)OC)c2c3cc(ccc31)-c1csc(n1)CC(NC(=O)C1CC1C)C(=O)N1CCCC(N1)C(=O)OCC(C)(C)C2,IC50,[1],> 1000 nM
same,IC50,[2],357 nM
same,IC50,[3],3.65 nM
same,IC50,[4],< 3.16 nM
same,IC50,[5],< 3.16 nM
same,IC50,[6],< 3.16 nM
same,"viability, T/C",[7],102%
same,"viability, T/C",[8],121%
same,"viability, T/C",[9],140%
same,"viability, T/C",[10],149%
same,"viability, T/C",[11],121%
same,"viability, T/C",[12],76.6%
same,"viability, T/C",[13],105%
same,"viability, T/C",[14],111%
same,"viability, T/C",[15],107%
same,"viability, T/C",[16],86.1%
same,"viability, T/C",[17],53%
same,"viability, T/C",[18],32%
same,"viability, T/C",[19],50.8%
same,"viability, T/C",[20],43.8%
same,"viability, T/C",[21],32.7%
same,"viability, T/C",[22],22.1%
same,"viability, T/C",[23],16.8%
same,"viability, T/C",[24],12.3%
same,"viability, T/C",[25],14.5%
same,"viability, T/C",[26],13.7%
same,"viability, T/C",[27],11.9%
same,"viability, T/C",[28],9.88%
same,"viability, T/C",[29],9.46%
same,"viability, T/C",[30],8.2%
same,"viability, T/C",[31],7.73%
same,"viability, T/C",[32],7.37%
same,"viability, T/C",[33],6.72%
same,"viability, T/C",[34],6.74%
same,"viability, T/C",[35],7.64%
same,"viability, T/C",[36],7%
same,"viability, T/C",[37],6.2%
same,"viability, T/C",[38],5.86%
same,"viability, T/C",[39],6.14%
same,"viability, T/C",[40],6.13%
same,"viability, T/C",[41],6.52%
same,"viability, T/C",[42],6.25%
